Test results from patent publication US20150231130A1, “PHARMACEUTICAL COMPOSITION COMPRISING DIAMORPHINE FOR INTRANASAL ADMINISTRATION” (WOCKHARDT LIMITED, priority 2012, published 2015).
“Also recorded” adds a separate entry of the source.

Experiments:
[1] = FLACC total pain scores, open label single dose clinical study of diamorphine hydrochloride nasal spray in children; format: in vivo; settings: 0.1 mg/kg body weight intranasally; children aged 1-<16 years
Source text: An open label, single dose, sparse sampling pharmacokinetic dentate study in children aged from 1-<16 years attending hospital clinics for minor day surgery or laser treatment and requiring intravenous cannulation and opiate analgesia for their routine clinical management. The cannulation site on the child's arm was numbed with local anaesthetic cream, and a cannula was inserted. The child was then anaesthetized and a baseline blood sample taken. The child received 1-3 sprays of intranasal diamorphine, depending on their weight, and another blood sample was taken as soon as possible (from 0-10 minutes) post dose. […] Plasma acetylmorphine, morphine, morphine-3-glucuronide, and morphine-6-glucuronide concentrations were determined. The data from all children taking part in the trial was pooled and analysed together to avoid excessive blood sampling. […] Adverse events, vital signs, nasal tolerance and pain scores were also monitored. […]
For assessing the effectiveness of the Diamorphine Hydrochloride Nasal Spray pain scores were measured. The investigators or nurses measured the FLACC scores. The total score was based on 5 categories: (F) Face; (L) Legs; (A) Activity; (C) Cry; (C) Consolability; are scored between […]. […]

[2] = Adverse events, open label single dose clinical study of diamorphine hydrochloride nasal spray in children; format: in vivo; settings: single intranasal dose
Source text: (§1) An open label, single dose, sparse sampling pharmacokinetic dentate study in children aged from 1-<16 years attending hospital clinics for minor day surgery or laser treatment and requiring intravenous cannulation and opiate analgesia for their routine clinical management. The cannulation site on the child's arm was numbed with local anaesthetic cream, and a cannula was inserted. The child was then anaesthetized and a baseline blood sample taken. The child received 1-3 sprays of intranasal diamorphine, depending on their weight, and another blood sample was taken as soon as possible (from 0-10 minutes) post dose. Up to four further pharmacokinetic blood samples were taken from the cannula for the purposes of the study spaced out over the following time windows: 10-20 minutes, 20-30 minutes, 30-45 minutes, 45-60 minutes, 60-120 minutes and between 120 minutes post dose and removal of the cannula. Plasma acetylmorphine, morphine, morphine-3-glucuronide, and morphine-6-glucuronide concentrations were determined. The data from all children taking part in the trial was pooled and analysed together to avoid excessive blood sampling. Population pharmacokinetic parameters were estimated by using a non-linear mixed effects dentate approach. Adverse events, vital signs, nasal tolerance and pain scores were also monitored. […]

[3] = Respiratory depression (clinically notable changes in vital signs) in the clinical study; format: in vivo, children; settings: single intranasal dose, 0.1 mg/kg body weight
Source text: as §1

[4] = cited from earlier work
human plasma proteins = settings: cited from earlier work
[5] = in presence of water degrades; cited from earlier work
[6] = 0.1 mg/kg of body weight, intravenous injection; cited from earlier work

Q: With `CC(=O)Oc1ccc2c3c1OC1[C@@H](OC(C)=O)C=C[C@H]4[C@@H](C2)N(C)CC[C@]314` (some centres unmarked) [diamorphine, 3,6-diacetyl ester of morphine] as the compound, how does the “Analgesic effectiveness (in words)” value [1] read?
A: effective alone in producing the analgesic effects

Q: And the “Incidence of adverse events (in words)” value [2]?
A: very low

Q: What about the “Respiratory depression (clinically notable changes in vital signs)” value [3] of the same compound?
A: free from the major side effects such as respiratory depression; also recorded: No respiratory depressant effect was observed

Q: And the half-life ([4]; in man)?
A: two to three

Q: What about the “Duration of analgesic effect” value ([4]; in vivo) of the same compound?
A: three to four

Q: And the “Protein binding (in words)” value (human plasma proteins)?
A: does not bind to protein

Q: What about the “Stability in liquid dosage form (in words)” value [5] of the same compound?
A: highly unstable in liquid dosage form

Q: And the “Respiratory depressant effect (in words)” value [6]?
A: respiratory depressant effect is reported
